This is an account of results in patent publication US11382882B2 (priority 2010, dated 2022).

“Also recorded” adds a separate entry of the source.

One experiment relates to MRSA strain USA300. The experiment is described as follows: microbe, parasite or virus in culture. The following applies: Staphylococcus aureus, 6 h; for hemolysis at 1 µg/mL: read-out: ELISA α-hemolysin inhibition 1 μg/mL; for hemolysis at 10 µg/mL: read-out: ELISA α-hemolysin inhibition 10 μg/mL.
For experiment [1], the system named is α-hemolysin gene expression. The class given is cell-based, Staphylococcus aureus.
The test system of experiment [2] is phenol-soluble modulin-a (psma) gene expression. The experiment can be described thus: phenol-soluble modulin-a (psma) gene expression in MRSA strain USA300 (FIG. 4). The class given is cell-based, Staphylococcus aureus.
The subject of another experiment is AgrA gene expression. The experiment is described as follows: AgrA gene expression in MRSA strain USA300 (FIG. 5). The class given is cell-based, Staphylococcus aureus.
For another experiment, the system named is AgrC gene expression. The experiment is described as follows: AgrC gene expression in MRSA strain USA300 (FIG. 6). The class given is cell-based, Staphylococcus aureus.
For another experiment, the system named is RNAIII gene expression. The experiment is described as follows: RNAIII gene expression in MRSA strain USA300 (FIG. 7). The class given is cell-based, Staphylococcus aureus.
Another experiment has as its system hla transcription. The experiment can be described thus: hla transcription by qRT-PCR (FIG. 9A). The following applies: 6 h, versus DMSO; for transcription of hla (qRT-PCR, in words): 10 and 50 μg/ml, 37° C. Background: Quantitative PCR measures a nucleic acid by following its amplification.
The next experiment has as its system RNAIII transcription. The experiment can be described thus: RNAIII transcription by qRT-PCR (FIG. 9B). As to conditions: 10 or 50 μg/ml; 37° C., 6 h; versus DMSO.

Procedure for RNAIII transcription: (§1) The effect of the compounds VII, X, XII, and XV on the transcription of hla and RNAIII was measured by qRT-PCR. S. aureus USA300 was incubated at 37° C. for 6 h in the presence of 0, 10, or 50 μg/ml of the compounds. The cultures were harvested, and total RNA was isolated using the RiboPure—bacterial RNA isolation kit (Ambion) with additional DNase I treatment. RNA yield and purity were assessed by measuring the ratio of UV absorbance at 260 and 280 nm, and the integrity of the RNA was assessed on a 1% denaturing agarose gel. High integrity RNA had two clear bands without smearing, indicating no fragmentation of 23S and 16S rRNA.
(§2) Real-time RT-PCR reactions were conducted using a SYBR—green mix (Bio-Rad). The data were analyzed using the ΔΔC2 and are represented as log2 of the treated sample/control sample (DMSO only).
Procedure for Streptococcus pyogenes: During the first phase of in vitro testing the concentration of the compounds was kept constant at 100 mg/L in 2% DMSO.
Procedure for hla transcription: as §1, §2

As to `O=C(O)c1c(F)c(F)cc2ccccc12` [III], in the experiment with MRSA strain USA300, the hemolysis at 1 µg/mL is 20.8 ± 3.5% and the hemolysis at 10 µg/mL was found to be 28.3 ± 3.4%.
On to `O=C(O)c1c(O)c(O)cc2ccccc12` [II], for which, in experiment [1], the α-hemolysin gene expression entry is listed as “inhibit”. In addition, the “phenol-soluble modulin-a (psma) gene expression” value in experiment [2] is “inhibit”. The AgrA gene expression entry with AgrA gene expression is given as “inhibit”. The AgrC gene expression result in the experiment with AgrC gene expression was “inhibit”. The RNAIII gene expression result in the experiment on RNAIII gene expression was “inhibit”. In addition, the “rabbit blood hemolysis inhibition in Streptococcus pyogenes (in words)” value (“rabbit blood hemolysis inhibition” for short) in the experiment on Streptococcus pyogenes is listed as “active”. For the same compound, in the experiment on MRSA strain USA300, the hemolysis at 1 µg/mL was 21.3 ± 5.2% and the hemolysis at 10 µg/mL stood at 76 ± 1.2%.
Consider `O=C(/C=C/c1ccc2c(c1)OCO2)c1ccccc(=O)c1O` [IV], for which, in the experiment with MRSA strain USA300, the hemolysis at 1 µg/mL worked out at 40.2 ± 5.2% and the hemolysis at 10 µg/mL was 73.6 ± 2.2%.
Take `COc1cc(O)c(C(=O)c2ccccc2)cc1S(=O)(=O)O` [IX]: in the experiment with Streptococcus pyogenes, the “rabbit blood hemolysis inhibition” value is “active”. In the experiment on MRSA strain USA300, the hemolysis at 10 µg/mL turned out to be 41.9 ± 8.2%.
Regarding `O=C1Nc2cccc3cc(O)cc1c23` [I], in the experiment on MRSA strain USA300, the hemolysis at 1 µg/mL came to 28 ± 4.4% and the hemolysis at 10 µg/mL came to 65 ± 2.5%.
For `O=C(O)c1ccc2cc(F)ccc2c1` [VIII], the hemolysis at 10 µg/mL in the experiment with MRSA strain USA300 stood at 56.3 ± 1.7%.
In the case of `O=C(O)c1ccc(-c2ccc(O)c(F)c2)cc1` [VII], the α-hemolysin gene expression result in experiment [1] is “inhibit”. The “phenol-soluble modulin-a (psma) gene expression” value in [2] was “inhibit”. The AgrA gene expression result in the experiment on AgrA gene expression is listed as “inhibit”. For the same compound, the AgrC gene expression result with AgrC gene expression is listed as “inhibit”. In addition, in the experiment on RNAIII gene expression, the RNAIII gene expression result is recorded as “inhibit”. The “rabbit blood hemolysis inhibition” value with Streptococcus pyogenes was “active”. In addition, in the experiment with MRSA strain USA300, the hemolysis at 1 µg/mL worked out at 31.3 ± 9% and the hemolysis at 10 µg/mL worked out at 61 ± 14.8%. Besides, the “transcription of hla (qRT-PCR, in words)” value in the experiment with hla transcription was “reduced”.
As to `CCc1cc(C(=O)COc2ccccc2)c(O)cc1O` [VI], in [1], the α-hemolysin gene expression entry is listed as “inhibit”. Moreover, in the experiment on AgrA gene expression, the AgrA gene expression result is recorded as “inhibit”. Moreover, the “rabbit blood hemolysis inhibition” value in the experiment with Streptococcus pyogenes is given as “active”. In the experiment with MRSA strain USA300, the hemolysis at 1 µg/mL is 55.2 ± 5.8% and the hemolysis at 10 µg/mL amounted to 76.3 ± 11.2%.
As to `COc1cc(C(=O)N/N=C/c2cccc3ccccc23)ccc1O` [V], in experiment [1], the α-hemolysin gene expression entry was “inhibit”. The “phenol-soluble modulin-a (psma) gene expression” value in experiment [2] is recorded as “inhibit”. Besides, the AgrA gene expression entry in the experiment on AgrA gene expression is recorded as “inhibit”. Besides, the AgrC gene expression result in the experiment with AgrC gene expression is listed as “inhibit”. Besides, the RNAIII gene expression entry in the experiment on RNAIII gene expression is given as “inhibit”. For the same compound, in the experiment on Streptococcus pyogenes, the “rabbit blood hemolysis inhibition” value is “active”. In the experiment on MRSA strain USA300, the hemolysis at 1 µg/mL was 23 ± 1.3% and the hemolysis at 10 µg/mL is 88.4 ± 1.5%.
Consider `O=C(O)c1cc(-c2ccc(F)cc2F)ccc1O` [X, diflunisal, reference compound], for which the α-hemolysin gene expression entry in experiment [1] is given as “inhibit”. In addition, the “phenol-soluble modulin-a (psma) gene expression” value in experiment [2] was “inhibit”. Besides, in the experiment on AgrA gene expression, the AgrA gene expression result is “inhibit”. Also, in the experiment with AgrC gene expression, the AgrC gene expression result is “inhibit”. For the same compound, the RNAIII gene expression entry in the experiment with RNAIII gene expression is “inhibit”. The “rabbit blood hemolysis inhibition” value in the experiment on Streptococcus pyogenes is reported as “active”. Further, in the experiment on MRSA strain USA300, the hemolysis at 1 µg/mL is 33 ± 3.6% and the hemolysis at 10 µg/mL stood at 62.3 ± 1.8%. In the experiment with hla transcription (50 μg/mL), the “reduction of hla expression” value was around 3000 fold. The “transcription of hla (qRT-PCR, in words)” value in the experiment with hla transcription is on record as “reduced”. In addition, the “RNAIII expression (qRT-PCR, in words)” value in the experiment with RNAIII transcription was “significant reduction; also recorded: reduced”.
Turning to `O=C(O)c1cc(-c2cccc(F)c2)ccc1O` [XIII], in the experiment on MRSA strain USA300, the hemolysis at 10 µg/mL came to 35.6 ± 12.5%.
`O=C(O)c1ccc(Oc2ccc(F)cc2)cc1` [XII]: in the experiment with MRSA strain USA300, the hemolysis at 10 µg/mL was determined as 29.1 ± 11%. The “transcription of hla (qRT-PCR, in words)” value with hla transcription is “reduced”.
On to `O=C(c1ccccc1)c1ccc(O)cc1O` [XIV], for which, in the experiment with MRSA strain USA300, the hemolysis at 10 µg/mL is 26.7%.
Still for that read-out and setting: then `O=C(O)c1ccc(Oc2ccc(Cl)cc2)cc1` [XI], with 36.3 ± 8.2%.
Take `O=C(O)c1ccc(-c2ccc(F)cc2)cc1` [XVI]: in [1], the α-hemolysin gene expression entry is on record as “inhibit”. For the same compound, the “phenol-soluble modulin-a (psma) gene expression” value in experiment [2] is given as “inhibit”. Further, the AgrA gene expression entry with AgrA gene expression is “inhibit”. Further, in the experiment on AgrC gene expression, the AgrC gene expression result was “inhibit”. For the same compound, the RNAIII gene expression result in the experiment on RNAIII gene expression was “inhibit”. Besides, the “rabbit blood hemolysis inhibition” value in the experiment on Streptococcus pyogenes is “active”. For the same compound, in the experiment on MRSA strain USA300, the hemolysis at 1 µg/mL is 0% and the hemolysis at 10 µg/mL is 68.8 ± 11.3%. In the experiment on hla transcription, the “transcription of hla (qRT-PCR, in words)” value is given as “reduced”.
With `O=C(O)c1cccc(-c2ccccc2)c1O` [XV], the α-hemolysin gene expression entry in experiment [1] is recorded as “inhibit”. Further, the “phenol-soluble modulin-a (psma) gene expression” value in experiment [2] is “inhibit”. In addition, the AgrA gene expression result in the experiment with AgrA gene expression is listed as “inhibit”. Also, the AgrC gene expression result with AgrC gene expression is “inhibit”. Moreover, in the experiment with RNAIII gene expression, the RNAIII gene expression entry is listed as “inhibit”. The “rabbit blood hemolysis inhibition” value with Streptococcus pyogenes is recorded as “active”. Moreover, in the experiment with MRSA strain USA300, the hemolysis at 1 µg/mL turned out to be 49.4 ± 4.6% and the hemolysis at 10 µg/mL was 53 ± 5.9%.
